Drawing on patent US12209087B2, “AKT1 modulators” (Alterome Therapeutics, Inc., priority 2022, dated 2025), this text covers IC50 for 26 molecules.

The target of the first experiment is T1, full length AKT E17K (Homo sapiens, UniProt P31749, E17K).
T1 construct: host or cells: HEK-293 (ATCC CRL-1573)
T1 sequence (P31749 whole entry E17K): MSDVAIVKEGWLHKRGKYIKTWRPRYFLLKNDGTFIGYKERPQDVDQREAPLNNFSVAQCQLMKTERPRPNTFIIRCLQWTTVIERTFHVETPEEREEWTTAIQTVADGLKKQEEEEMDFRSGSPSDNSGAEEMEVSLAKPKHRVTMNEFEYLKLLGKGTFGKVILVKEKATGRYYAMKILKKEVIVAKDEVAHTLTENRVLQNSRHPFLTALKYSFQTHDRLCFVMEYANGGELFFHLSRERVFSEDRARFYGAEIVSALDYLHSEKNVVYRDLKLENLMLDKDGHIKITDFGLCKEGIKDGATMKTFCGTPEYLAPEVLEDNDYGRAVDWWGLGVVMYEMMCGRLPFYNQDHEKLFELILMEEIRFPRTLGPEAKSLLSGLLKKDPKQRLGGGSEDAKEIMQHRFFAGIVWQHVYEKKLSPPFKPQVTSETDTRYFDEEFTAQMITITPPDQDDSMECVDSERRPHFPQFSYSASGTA
The experiment is described as follows: NanoBRET Target Engagement (TE) Assay. The class given is cell-based. The following applies: competitive displacement of tracer in cells, read-out: AKT1 E17K IC50. An outline of the steps:
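Compound and tracer incubated 2 h before luminescence at donor 450 nm and acceptor 600 nm, with extracellular signal inhibited. EC50 by sigmoidal variable-slope regression.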
In general terms: Bioluminescence resonance energy transfer reports proximity on the nanometre scale.
For `[2H]C([2H])(c1ccc(-n2c(-c3cccnc3N)nc3ccc(-c4ccc(F)cc4)nc32)cc1)N1CCC(N(C)c2ccnc(C#N)n2)CC1` [Example 488, 4-((1-((4-(2-(2-Aminopyridin-3-yl)-5-(4-fluorophenyl)-3H-imidazo[4,5-b]pyridin-3-yl)phenyl)methyl-d2)piperidin-4-yl)(methyl)amino)pyrimidine-2-carbonitrile], the IC50 was less than 15 nM. For the molecule `N#Cc1nccc(NC2CCN(Cc3ccc(-n4c(-c5cccnc5N)nc5ccc(-c6cocn6)nc54)cc3)CC2)n1` [Example 594, 4-((1-(4-(2-(2-Aminopyridin-3-yl)-5-(oxazol-4-yl)-3H-imidazo[4,5-b]pyridin-3-yl)benzyl)piperidin-4-yl)amino)pyrimidine-2-carbonitrile], the 50% inhibitory concentration (IC50) was less than 15 nM. With `N#Cc1nccc(NC2CCN(Cc3ccc(-n4c(-c5cccnc5N)nc5ccc(-c6ccc[nH]c6=O)nc54)cc3)CC2)n1` [Example 381, 4-((1-(4-(2-(2-Aminopyridin-3-yl)-5-(2-oxo-1,2-dihydropyridin-3-yl)-3H-imidazo[4,5-b]pyridin-3-yl)benzyl)piperidin-4-yl)amino)pyrimidine-2-carbonitrile], the IC50 is less than 15 nM.

For `CC(C)n1cc(-c2ccc3nc(-c4cccnc4N)n(-c4ccc(CN5CCC(Nc6ccnc(C#N)n6)CC5)cc4)c3n2)cn1` [Example 479, 4-((1-(4-(2-(2-Aminopyridin-3-yl)-5-(1-isopropyl-1H-pyrazol-4-yl)-3H-imidazo[4,5-b]pyridin-3-yl)benzyl)piperidin-4-yl)amino)pyrimidine-2-carbonitrile], the concentration for half-maximal inhibition (IC50) was less than 15 nM. Consider `CNc1ccc2nc(-c3cccnc3N)n(-c3ccc(CN4CCC(Nc5ccnc(C#N)n5)CC4)cc3)c2n1` [Example 457, 4-((1-(4-(2-(2-Aminopyridin-3-yl)-5-(methylamino)-3H-imidazo[4,5-b]pyridin-3-yl)benzyl)piperidin-4-yl)amino)pyrimidine-2-carbonitrile], for which the half-maximal inhibitory concentration (IC50) was in the range of 15 to 60 nM. In the case of `Cc1nn(C)nc1-c1ccc2nc(-c3nccnc3N)n(-c3ccc(CN4CCC(Nc5ccnc(C#N)n5)CC4)cc3)c2n1` [Example 635, 4-((1-(4-(2-(3-Aminopyrazin-2-yl)-5-(2,5-dimethyl-2H-1,2,3-triazol-4-yl)-3H-imidazo[4,5-b]pyridin-3-yl)benzyl)piperidin-4-yl)amino)pyrimidine-2-carbonitrile], the IC50 is 15 to 60 nM. Take `N#Cc1ncnc(NC2CCN(Cc3ccc(-n4c(-c5cccnc5N)nc5ccc(-c6ccc(Cl)cc6)nc54)cc3)CC2)n1` [Example 382, 4-((1-(4-(2-(2-Aminopyridin-3-yl)-5-(4-chlorophenyl)-3H-imidazo[4,5-b]pyridin-3-yl)benzyl)piperidin-4-yl)amino)-1,3,5-triazine-2-carbonitrile]: the half-maximal inhibitory concentration (IC50) is 15 to 60 nM. Take `COc1ccnc(-c2ccc3nc(-c4cccnc4N)n(-c4ccc(CN5CCC(Nc6ccnc(C#N)n6)CC5)cc4)c3n2)c1` [Example 437, 4-((1-(4-(2-(2-Aminopyridin-3-yl)-5-(4-methoxypyridin-2-yl)-3H-imidazo[4,5-b]pyridin-3-yl)benzyl)piperidin-4-yl)amino)pyrimidine-2-carbonitrile]: the IC50 is less than 15 nM. The same measure, in the same setting: the same measure for `Cn1c(-c2ccc3nc(-c4cccnc4N)n(-c4ccc(CN5CCN(c6ccnc(C#N)n6)CC5)cc4)c3n2)cccc1=O` [Example 394, 4-(4-(4-(2-(2-Aminopyridin-3-yl)-5-(1-methyl-6-oxo-1,6-dihydropyridin-2-yl)-3H-imidazo[4,5-b]pyridin-3-yl)benzyl)piperazin-1-yl)pyrimidine-2-carbonitrile]: 600 to 10000 nM; for `N#Cc1nccc(NC2CCN(Cc3ccc(-n4c(-c5cccnc5N)nc5ccc(-c6cnn(C(F)F)c6)nc54)cc3)CC2)n1` [Example 474, 4-((1-(4-(2-(2-Aminopyridin-3-yl)-5-(1-(difluoromethyl)-1H-pyrazol-4-yl)-3H-imidazo[4,5-b]pyridin-3-yl)benzyl)piperidin-4-yl)amino)pyrimidine-2-carbonitrile]: less than 15 nM. Take `COC(=O)Nc1cccc(-c2ccc3nc(-c4cccnc4N)n(-c4ccc(CN5CCC(Nc6ccnc(C#N)n6)CC5)cc4)c3n2)c1` [Example 520, Methyl (3-(2-(2-aminopyridin-3-yl)-3-(4-((4-((2-cyanopyrimidin-4-yl)amino)piperidin-1-yl)methyl)phenyl)-3H-imidazo[4,5-b]pyridin-5-yl)phenyl)carbamate]: the IC50 is less than 15 nM. Regarding `CCn1cc(-c2ccc3nc(-c4cccnc4N)n(-c4ccc(CN5CCC(Nc6ccnc(C#N)n6)CC5)cc4)c3n2)nn1` [Example 625, 4-((1-(4-(2-(2-Aminopyridin-3-yl)-5-(1-ethyl-1H-1,2,3-triazol-4-yl)-3H-imidazo[4,5-b]pyridin-3-yl)benzyl)piperidin-4-yl)amino)pyrimidine-2-carbonitrile], the IC50 was less than 15 nM. The same measure, in the same setting: the same measure for `N#Cc1nccc(NC2CCN(Cc3ccc(-n4c(-c5ccccc5)nc5ccc(-c6ccc(F)cn6)nc54)cc3)CC2)n1` [Example 577, 4-((1-(4-(5-(5-Fluoropyridin-2-yl)-2-phenyl-3H-imidazo[4,5-b]pyridin-3-yl)benzyl)piperidin-4-yl)amino)pyrimidine-2-carbonitrile]: 15 to 60 nM.

Staying with this experiment, now noted: competitive tracer displacement in living cells, read-out: AKT1 E17K IC50.
`N#Cc1cc(C(=O)NC2CCN(Cc3ccc(-n4c(-c5cccnc5N)nc5ccc(-c6ccccc6)nc54)cc3)CC2)ncn1` [Example 117, N-(1-(4-(2-(2-aminopyridin-3-yl)-5-phenyl-3H-imidazo[4,5-b]pyridin-3-yl)benzyl)piperidin-4-yl)-6-cyanopyrimidine-4-carboxamide]: the half-inhibitory concentration (IC50) was 15 to 60 nM. Take `N#Cc1ncnc(N2CCN(Cc3ccc(-n4c(-c5cccnc5N)nc5ccc(-c6ccccc6F)nc54)cc3)CC2)n1` [Example 312, 4-(4-(4-(2-(2-Aminopyridin-3-yl)-5-(2-fluorophenyl)-3H-imidazo[4,5-b]pyridin-3-yl)benzyl)piperazin-1-yl)-1,3,5-triazine-2-carbonitrile]: the IC50 is less than 15 nM. Turning to `N#Cc1ncnc(N2CCN(Cc3ccc(-n4c(-c5cccnc5N)nc5ccc(-c6ccccc6)nc54)cc3)CC23CC3)n1` [Example 276, 4-(7-(4-(2-(2-aminopyridin-3-yl)-5-phenyl-3H-imidazo[4,5-b]pyridin-3-yl)benzyl)-4,7-diazaspiro[2.5]octan-4-yl)-1,3,5-triazine-2-carbonitrile], the IC50 was less than 15 nM.

For the molecule `N#Cc1nccc(NC2CCN(Cc3ccc(-n4c(-c5cccnc5N)nc5ccc(N6CCOCC6)nc54)cc3)CC2)n1` [Example 239, 4-((1-(4-(2-(2-Aminopyridin-3-yl)-5-morpholino-3H-imidazo[4,5-b]pyridin-3-yl)benzyl)piperidin-4-yl)amino)pyrimidine-2-carbonitrile], the half-maximal inhibitory concentration (IC50) is less than 15 nM. With `N#Cc1nccc(N2C3CCC2CN(Cc2ccc(-n4c(-c5cccnc5N)nc5ccc(-c6ccccc6)nc54)cc2)C3)n1` [Example 203, 4-(3-(4-(2-(2-Aminopyridin-3-yl)-5-phenyl-3H-imidazo[4,5-b]pyridin-3-yl)benzyl)-3,8-diazabicyclo[3.2.1]octan-8-yl)pyrimidine-2-carbonitrile], the IC50 fell in the range of 60 to 600 nM. Turning to `N#Cc1cnccc1C(=O)N1CCN(Cc2ccc(-n3c(-c4cccnc4N)nc4ccc(-c5ccccc5)nc43)cc2)CC1` [Example 144, 4-(4-(4-(2-(2-Aminopyridin-3-yl)-5-phenyl-3H-imidazo[4,5-b]pyridin-3-yl)benzyl)piperazine-1-carbonyl)nicotinonitrile], the IC50 was in the range of 600 to 10000 nM.

For the molecule `N#Cc1ccnc(N2CC3CCC(C2)N3Cc2ccc(-n3c(-c4cccnc4N)nc4ccc(-c5ccccc5)nc43)cc2)n1` [Example 212, 2-(8-(4-(2-(2-Aminopyridin-3-yl)-5-phenyl-3H-imidazo[4,5-b]pyridin-3-yl)benzyl)-3,8-diazabicyclo[3.2.1]octan-3-yl)pyrimidine-4-carbonitrile], the IC50 fell in the range of 60 to 600 nM.

In the case of `N#Cc1nc2cc(C(=O)NC3CCN(Cc4ccc(-n5c(-c6cccnc6N)nc6cccnc65)cc4)CC3)ccc2s1` [Example 34, N-(1-(4-(2-(2-aminopyridin-3-yl)-3H-imidazo[4,5-b]pyridin-3-yl)benzyl)piperidin-4-yl)-2-cyanobenzo[d]thiazole-5-carboxamide], the 50% inhibitory concentration (IC50) was 60 to 600 nM. On to `N#Cc1ccncc1C(=O)NCc1ccc(-n2c(-c3cccnc3N)nc3cccnc32)cc1` [Example 100, N-(4-(2-(2-Aminopyridin-3-yl)-3H-imidazo[4,5-b]pyridin-3-yl)benzyl)-4-cyanonicotinamide], for which the IC50 was in the range of 600 to 10000 nM.

For `CN(c1ncnc(C#N)n1)C1CCN(Cc2ccc(-n3c(-c4cccnc4N)nc4ccc(-c5ccccc5)nc43)cc2)CC1` [Example 223, 4-((1-(4-(2-(2-aminopyridin-3-yl)-5-phenyl-3H-imidazo[4,5-b]pyridin-3-yl)benzyl)piperidin-4-yl)(methyl)amino)-1,3,5-triazine-2-carbonitrile], the IC50 was in the range of 15 to 60 nM.

With `N#Cc1cnccc1C(=O)NCc1ccc(-n2c(-c3cccnc3N)nc3cccnc32)cc1` [Example 99, N-(4-(2-(2-Aminopyridin-3-yl)-3H-imidazo[4,5-b]pyridin-3-yl)benzyl)-3-cyanoisonicotinamide], the half-inhibitory concentration (IC50) fell in the range of 600 to 10000 nM. Turning to `N#Cc1cc(N2CCN(Cc3ccc(-n4c(-c5cccnc5N)nc5cccnc54)cc3)CC2)ncn1` [Example 21, 6-(4-(4-(2-(2-Aminopyridin-3-yl)-3H-imidazo[4,5-b]pyridin-3-yl)benzyl)piperazin-1-yl)pyrimidine-4-carbonitrile], the half-inhibitory concentration (IC50) was in the range of 60 to 600 nM.

For `N#Cc1ncnc(N2CCCN(Cc3ccc(-n4c(-c5cccnc5N)nc5ccc(-c6ccccc6)nc54)cc3)CC2)n1` [Example 250, 4-(4-(4-(2-(2-Aminopyridin-3-yl)-5-phenyl-3H-imidazo[4,5-b]pyridin-3-yl)benzyl)-1,4-diazepan-1-yl)-1,3,5-triazine-2-carbonitrile], the IC50 fell in the range of 15 to 60 nM.

One may read the IC50 as the concentration that inhibits the measured activity by half.
